Earlier results in patent US6060616A, “Bis-platinum complexes with polymethylene derivatives as ligands having antitumor activity” (Hoffmann-La Roche Inc., priority 1998, dated 2000).

Conditions: clinical use, background

Structure (SMILES): N.N.O=C([O-])C1(C(=O)[O-])CCC1.[Pt+2] [carboplatin, [Pt(NH3)2(CBDCA)]]
- nephrotoxicity: reduction in the nephrotoxic effects
